Converted amounts (≈) assume the structure as drawn.
Experiments:
Type in all cases: functional
[1] = test system: Mycobacterium tuberculosis; assay: Antitubercular activity against Mycobacterium tuberculosis H37Rv assessed as growth inhibition by BACTEC MGIT method
Candida albicans [2] = assay: Antimicrobial activity against Candida albicans MTCC 183 assessed as diameter of growth zone inhibition by agar streak dilution method
Aspergillus niger [3] = assay: Antimicrobial activity against Aspergillus niger MTCC 282 assessed as diameter of growth zone inhibition by agar streak dilution method
Pseudomonas aeruginosa [4] = assay: Antimicrobial activity against Pseudomonas aeruginosa MTCC 741 assessed as diameter of growth zone inhibition by agar streak dilution method
Escherichia coli [5] = assay: Antimicrobial activity against Escherichia coli MTCC 739 assessed as diameter of growth zone inhibition by agar streak dilution method
Staphylococcus aureus [6] = assay: Antimicrobial activity against Staphylococcus aureus MTCC 96 assessed as diameter of growth zone inhibition by agar streak dilution method
Bacillus subtilis [7] = assay: Antimicrobial activity against Bacillus subtilis MTCC 430 assessed as diameter of growth zone inhibition by agar streak dilution method
Candida albicans [8] = assay: Antimicrobial activity against Candida albicans MTCC 183 assessed as growth inhibition by agar streak dilution method
Aspergillus niger [9] = assay: Antimicrobial activity against Aspergillus niger MTCC 282 assessed as growth inhibition by agar streak dilution method
Pseudomonas aeruginosa [10] = assay: Antimicrobial activity against Pseudomonas aeruginosa MTCC 741 assessed as growth inhibition by agar streak dilution method
Escherichia coli [11] = assay: Antimicrobial activity against Escherichia coli MTCC 739 assessed as growth inhibition by agar streak dilution method
Bacillus subtilis [12] = assay: Antimicrobial activity against Bacillus subtilis MTCC 430 assessed as growth inhibition by agar streak dilution method
Staphylococcus aureus [13] = assay: Antimicrobial activity against Staphylococcus aureus MTCC 96 assessed as growth inhibition by agar streak dilution method

SMILES	MIC [1] [µg/mL]	diameter of the inhibition zone (DIZ) (Candida albicans [2]) [mm]	diameter of the inhibition zone (DIZ) (Aspergillus niger [3]) [mm]	diameter of the inhibition zone (DIZ) (Pseudomonas aeruginosa [4]) [mm]	diameter of the inhibition zone (DIZ) (Escherichia coli [5]) [mm]	diameter of the inhibition zone (DIZ) (Staphylococcus aureus [6]) [mm]	diameter of the inhibition zone (DIZ) (Bacillus subtilis [7]) [mm]	MIC (Candida albicans [8]) [µg/mL]	MIC (Aspergillus niger [9]) [µg/mL]	MIC (Pseudomonas aeruginosa [10]) [µg/mL]	MIC (Escherichia coli [11]) [µg/mL]	MIC (Bacillus subtilis [12]) [µg/mL]	MIC (Staphylococcus aureus [13]) [µg/mL]
O=C1C(Cl)C(c2cc3ccccc3nc2S)N1c1ccccc1 (centres undefined)	1000 (≈ 2930 µM)	<10	<10	<10	<10	17	17	100 (≈ 293 µM)	100 (≈ 293 µM)	100 (≈ 293 µM)	100 (≈ 293 µM)	100 (≈ 293 µM)	100 (≈ 293 µM)
Cc1ccccc1N1C(=O)C(Cl)C1c1cc2ccccc2nc1S (centres undefined)	500 (≈ 1410 µM)	20	18	19	<10	21	<10	100 (≈ 282 µM)	100 (≈ 282 µM)	100 (≈ 282 µM)	100 (≈ 282 µM)	100 (≈ 282 µM)	62.5 (≈ 176 µM)
Cc1cccc(N2C(=O)C(Cl)C2c2cc3ccccc3nc2S)c1 (centres undefined)	500 (≈ 1410 µM)	18	19	<10	17	19	18	100 (≈ 282 µM)	100 (≈ 282 µM)	100 (≈ 282 µM)	100 (≈ 282 µM)	100 (≈ 282 µM)	100 (≈ 282 µM)

— ChEMBL document CHEMBL3044671, “Synthesis and in vitro antimicrobial and anti-tubercular evaluation of some quinoline-based azitidinone and thiazolidinone analogues” (2013)
